Laboratory results taken from patent publication US8877778B2, “Benzofurane compounds” (Hoffmann-La Roche Inc., priority 2010, dated 2014).

Key:
[1] = biological target: human D2 receptor (Homo sapiens (Human), UniProt P14416); assay: Radioligand binding ([3H]-spiperone) to cloned receptors expressed in HEK-293 EBNA cells; conditions: HEK293 EBNA cell membranes expressing human D2
Protocol: (§1) HEK293 EBNA cells were transiently transfected with expression plasmids encoding for the human D2 or D3 or for the human 5-HT2A receptor, respectively. The cells were harvested 48 h post-transfection, washed three times with cold PBS and stored at −80° C. prior to use. The pellet was suspended in cold 50 mM Tris-HCl buffer comprising 10 mM EDTA (pH 7.4) and was homogenized with a Polytron (Kinematica AG, Basel, Switzerland) for 20-30 sec at 12.000 rpm. After centrifugation at 48.000×g for 30 min at 4° C., the pellet was resuspended in cold 10 mM Tris-HCl buffer comprising 0.1 mM EDTA (pH 7.4), homogenized, and centrifuged as above. This pellet was further resuspended in a smaller volume of ice cold 10 mM Tris-HCl buffer comprising 0.1 mM EDTA (pH 7.4) and homogenized with a Polytron for 20-30 sec at 12.000 rpm. The protein content of this homogenate was determined with the Bio-Rad (Bradford) Protein Assay (Biorad Laboratories GmbH, München, Germany) according to the instructions of the manufacturer using gamma globulin as the standard. This homogenate was stored at −80° C. in aliquots and thawed immediately prior to use.
(§2) Aliquots of membrane preparations were thawed at RT, resupended in assay buffer (D2, D3: 50 mM Tris-HCl, 120 mM NaCl, 5 mM MgCl2, 1 mM EDTA, 5 mM KCl, 1.5 mM CaCl2, pH=7.4; 5-HT2A: 50 mM Tris-HCl, 10 mM MgCl2, 1 mM EGTA, pH=7.4), homogenized with a Polytron for 20-30 sec at 12.000 rpm and adjusted to a final concentration of approximately 7.5 μg protein/well (D2, D3) and 15 μg protein/well (5-HT2A), respectively.
(§3) The binding affinity (Ki) of the compounds was determined using radioligand binding. Membranes were incubated in a total volume of 200 μl with a fixed concentration of radioligand (final concentration approximately 0.7 nM [^3H]-spiperone for D2, 0.5 nM [^3H]-spiperone for D3, and 1.1 nM [^3H]-ketanserin for 5-HT2A) and ten concentrations of test compound in ranging between 10 μM-0.1 nM for 1 h at RT. At the end of the incubation, the reaction mixtures were filtered on to unifilter 96-well white microplates with bonded GF/C filters (Packard BioScience, Zürich, Switzerland; preincubated for 1 h in 0.1% polyethylenimine (PEI) in assay buffer) with a Filtermate 196 harvester (Packard BioScience) and washed 3 times with cold assay buffer. The nonspecific binding was determined with equally composed reaction mixtures in the presence of 10 μM unlabelled spiperone. Per well 45 μl of Microscint 40 (Perkin Elmer, Schwerzenbach, Switzerland) was added, plates for sealed, shaken for 20 min and counted for 3 min on a Topcount Microplate Scintillation Counter (Can berra Packard SA, Zürich, Switzerland) with quenching correction.
(§4) The CPM value for each duplicate of a concentration of competing compound was averaged (y1), then the % specific binding was calculated according to the equation (((y1−non-specific)/(total binding−non-specific))×100). Graphs were plotted with the % specific binding using XLfit, a curve fitting program that iteratively plots the data using Levenberg-Marquardt algorithm. The single site competition analysis equation used was y=A+((B−A)/(1+((x/C)D))), where y is the % specific binding, A is the minimum y, B is the maximum y, C is the IC50, x is the log 10 of the concentration of the competing compound and D is the slope of the curve (the Hill Coefficient). […] The affinity constant (Ki) was calculated using the Cheng-Prusoff equation Ki=(IC50/1+([L]/Kd), where [L] is the concentration of radioligand and Kd is the dissociation constant of the radioligand at the receptor as determined by the saturation isotherm.

[2] = biological target: human D3 receptor (Homo sapiens (Human), UniProt P35462); assay: as above; conditions: HEK293 EBNA cell membranes expressing human D3
Chain of human D3 receptor (P35462 whole entry): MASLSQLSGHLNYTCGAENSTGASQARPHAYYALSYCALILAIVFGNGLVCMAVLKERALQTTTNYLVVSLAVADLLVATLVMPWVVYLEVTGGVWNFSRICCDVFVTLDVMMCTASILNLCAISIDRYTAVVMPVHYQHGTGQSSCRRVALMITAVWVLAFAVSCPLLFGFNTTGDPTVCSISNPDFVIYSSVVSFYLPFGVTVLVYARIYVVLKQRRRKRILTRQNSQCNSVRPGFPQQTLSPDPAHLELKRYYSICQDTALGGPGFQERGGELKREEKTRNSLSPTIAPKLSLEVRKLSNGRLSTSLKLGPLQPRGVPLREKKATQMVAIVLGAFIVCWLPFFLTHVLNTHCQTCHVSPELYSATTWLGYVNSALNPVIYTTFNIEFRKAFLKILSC
Protocol: as §1, §2, §3, §4

[3] = biological target: human 5-HT2A receptor (Homo sapiens (Human), UniProt P28223); assay: Radioligand binding ([3H]-ketanserin) to cloned receptors expressed in HEK-293 EBNA cells; conditions: HEK293 EBNA cell membranes expressing human 5-HT2A
Chain of human 5-HT2A receptor (P28223 whole entry): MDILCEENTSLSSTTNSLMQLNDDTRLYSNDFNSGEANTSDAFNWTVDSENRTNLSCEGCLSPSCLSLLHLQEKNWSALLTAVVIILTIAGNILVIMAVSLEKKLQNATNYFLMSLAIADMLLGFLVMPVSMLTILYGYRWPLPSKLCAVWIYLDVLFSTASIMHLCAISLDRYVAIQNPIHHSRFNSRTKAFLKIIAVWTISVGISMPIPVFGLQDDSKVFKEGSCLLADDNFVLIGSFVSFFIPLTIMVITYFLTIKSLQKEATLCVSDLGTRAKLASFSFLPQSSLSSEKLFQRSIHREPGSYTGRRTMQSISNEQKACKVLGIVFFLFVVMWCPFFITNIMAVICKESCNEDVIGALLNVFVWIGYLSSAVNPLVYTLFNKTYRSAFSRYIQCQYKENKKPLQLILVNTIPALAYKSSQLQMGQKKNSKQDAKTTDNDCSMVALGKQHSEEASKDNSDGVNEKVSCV
Protocol: as §1, §2, §3, §4

Chain of human D2 receptor (P14416 whole entry): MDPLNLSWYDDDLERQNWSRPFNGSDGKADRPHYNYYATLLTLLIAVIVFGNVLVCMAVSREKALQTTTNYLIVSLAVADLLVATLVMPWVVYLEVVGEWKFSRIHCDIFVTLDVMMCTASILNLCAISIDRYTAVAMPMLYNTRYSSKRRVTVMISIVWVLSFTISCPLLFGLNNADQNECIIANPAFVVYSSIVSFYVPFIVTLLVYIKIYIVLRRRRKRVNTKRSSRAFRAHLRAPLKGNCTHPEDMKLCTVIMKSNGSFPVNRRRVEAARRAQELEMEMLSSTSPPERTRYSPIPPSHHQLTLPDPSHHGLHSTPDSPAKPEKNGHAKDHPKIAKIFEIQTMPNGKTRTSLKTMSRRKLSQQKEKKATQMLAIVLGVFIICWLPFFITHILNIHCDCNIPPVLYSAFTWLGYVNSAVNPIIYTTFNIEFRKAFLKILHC

Structure (SMILES) | Ki [1] [nM] | Ki [2] [nM] | Ki [3] [nM] | melting point [°C]
O=C(N[C@H]1CC[C@H](CCN2CCC(c3cccc4c3CCO4)CC2)CC1)c1ccc(F)cc1 [Example 35, trans-N-(4-{2-[4-(2,3-Dihydro-benzofuran-4-yl)-piperidin-1-yl]-ethyl}-cyclohexyl)-4-fluoro-benzamide] | 73.7 | 4.9 | 14.2 | 213
O=C(C[C@@H](O)C(F)(F)F)N[C@H]1CC[C@H](CCN2CCC(c3cccc4c3CCO4)CC2)CC1 [Example 36, trans-(R)—N-(4-{2-[4-(2,3-Dihydro-benzofuran-4-yl)-piperidin-1-yl]-ethyl}-cyclohexyl)-4,4,4-trifluoro-3-hydroxy-butyramide] | 239 | 6.5 | 53.4 | 189
CC(C)(O)C(=O)N[C@H]1CC[C@H](CCN2CCC(c3cccc4c3CCO4)CC2)CC1 [Example 38, trans-N-(4-{2-[4-(2,3-Dihydro-benzofuran-4-yl)-piperidin-1-yl]-ethyl}-cyclohexyl)-2-hydroxy-2-methyl-propionamide] | 495 | 34.9 | 8 | 163
O=C(N[C@H]1CC[C@H](CCN2CCC(c3cccc4c3CCO4)CC2)CC1)c1ccnc2ccccc12 [Example 40, Quinoline-4-carboxylic acid trans-(4-{2-[4-(2,3-dihydro-benzofuran-4-yl)-piperidin-1-yl]-ethyl}-cyclohexyl)-amide] | 563 | 6.1 | 24.2 | 211
Cc1cc(C(=O)N[C@H]2CC[C@H](CCN3CCC(c4cccc5c4CCO5)CC3)CC2)on1 [Example 41, 3-Methyl-isoxazole-5-carboxylic acid trans-(4-{2-[4-(2,3-dihydro-benzofuran-4-yl)-piperidin-1-yl]-ethyl}-cyclohexyl)-amide] | 124 | 10.8 | 36.4 | 215
Cc1ccc(C(=O)N[C@H]2CC[C@H](CCN3CCC(c4cccc5c4CCO5)CC3)CC2)cn1 [Example 42, trans-N-(4-{2-[4-(2,3-Dihydro-benzofuran-4-yl)-piperidin-1-yl]-ethyl}-cyclohexyl)-6-methyl-nicotinamide] | 151 | 10.2 | 25.4 | 202
O=C(N[C@H]1CC[C@H](CCN2CCC(c3cccc4c3CCO4)CC2)CC1)C(F)(F)F [Example 43, trans-N-(4-{2-[4-(2,3-Dihydro-benzofuran-4-yl)-piperidin-1-yl]-ethyl}-cyclohexyl)-2,2,2-trifluoro-acetamide] | 289 | 21.9 | 55.2 | 173
CN1CCN(c2ccc(C(=O)N[C@H]3CC[C@H](CCN4CCC(c5cccc6c5CCO6)CC4)CC3)cc2)CC1 [Example 44, trans-N-(4-{2-[4-(2,3-Dihydro-benzofuran-4-yl)-piperidin-1-yl]-ethyl}-cyclohexyl)-4-(4-methyl-piperazin-1-yl)-benzamide] | 147 | 6 | 8.4 | 241
N#Cc1ccc(C(=O)N[C@H]2CC[C@H](CCN3CCC(c4cccc5c4CCO5)CC3)CC2)cc1 [Example 45, trans-4-Cyano-N-(4-{2-[4-(2,3-dihydro-benzofuran-4-yl)-piperidin-1-yl]-ethyl}-cyclohexyl)-benzamide] | 192 | 7.9 | 22.2 | 230
O=C(N[C@H]1CC[C@H](CCN2CCC(c3cccc4c3CCO4)CC2)CC1)c1ccc(N2CCOCC2)nc1 [Example 46, trans-N-(4-{2-[4-(2,3-Dihydro-benzofuran-4-yl)-piperidin-1-yl]-ethyl}-cyclohexyl)-6-morpholin-4-yl-nicotinamide] | 920 | 16.3 | 27.6 | 228
CS(=O)(=O)N[C@H]1CC[C@H](CCN2CCC(c3cccc4c3CCO4)CC2)CC1 [Example 47, trans-N-(4-{2-[4-(2,3-Dihydro-benzofuran-4-yl)-piperidin-1-yl]-ethyl}-cyclohexyl)-methanesulfonamide] | 328 | 10.1 | 35.2 | 152
CCS(=O)(=O)N[C@H]1CC[C@H](CCN2CCC(c3cccc4c3CCO4)CC2)CC1 [Example 48, Ethanesulfonic acid trans-(4-{2-[4-(2,3-dihydro-benzofuran-4-yl)-piperidin-1-yl]-ethyl}-cyclohexyl)-amide] | 333 | 11.2 | 34.8 | 131
O=S(=O)(N[C@H]1CC[C@H](CCN2CCC(c3cccc4c3CCO4)CC2)CC1)c1ccccc1 [Example 49, trans-N-(4-{2-[4-(2,3-Dihydro-benzofuran-4-yl)-piperidin-1-yl]-ethyl}-cyclohexyl)-benzenesulfonamide] | 138 | 5.1 | 79.7 | 130
O=S(=O)(N[C@H]1CC[C@H](CCN2CCC(c3cccc4c3CCO4)CC2)CC1)c1ccc(F)cc1 [Example 50, trans-N-(4-{2-[4-(2,3-Dihydro-benzofuran-4-yl)-piperidin-1-yl]-ethyl}-cyclohexyl)-4-fluoro-benzenesulfonamide] | 105 | 4.1 | 86.8 | 134
CN(C)S(=O)(=O)N[C@H]1CC[C@H](CCN2CCC(c3cccc4c3CCO4)CC2)CC1 [Example 51, N′-(trans-4-{2-[4-(2,3-Dihydro-benzofuran-4-yl)-piperidin-1-yl]-ethyl}-cyclohexyl)-N,N-dimethylsulfamide] | 251 | 9.9 | 19.5 | 122
N#CCC(=O)N[C@H]1CC[C@H](CCN2CCC(c3cccc4c3CCO4)CC2)CC1 [Example 55, trans-2-Cyano-N-(4-{2-[4-(2,3-dihydro-benzofuran-4-yl)-piperidin-1-yl]-ethyl}-cyclohexyl)-acetamide] | 140 | 3.6 | 38.7 | 194
O=C(N[C@H]1CC[C@H](CCN2CCC(c3cccc4c3CCO4)CC2)CC1)c1ccc(N2CCCCC2)cc1 [Example 56, trans-N-(4-{2-[4-(2,3-Dihydro-benzofuran-4-yl)-piperidin-1-yl]-ethyl}-cyclohexyl)-4-piperidin-1-yl-benzamide] | 2270 | 72.5 | 137 | 248
O=C(N[C@H]1CC[C@H](CCN2CCC(c3cccc4c3CCO4)CC2)CC1)c1ccc(C(F)(F)F)cc1 [Example 57, trans-N-(4-{2-[4-(2,3-Dihydro-benzofuran-4-yl)-piperidin-1-yl]-ethyl}-cyclohexyl)-4-trifluoromethyl-benzamide] | 1460 | 66.1 | 135 | 228
CC(C)(C)C(=O)N[C@H]1CC[C@H](CCN2CCC(c3cccc4c3CCO4)CC2)CC1 [Example 58, trans-N-(4-{2-[4-(2,3-Dihydro-benzofuran-4-yl)-piperidin-1-yl]ethyl}-cyclohexyl)-2,2-dimethyl-propionamide] | 378 | 65.1 | 50.6 | 192
